Results taken from US20090048291A1, “Novel Piperidine-4-Acetic Acid Derivatives and Their Use” (Euroscreen S.A., priority 2007, published 2009).
Like-named read-outs stand apart in the source and are kept apart here. Blank lines part the entries; values can stand above or below the compound they belong to.

Columns and labels:
CCR5 receptor [1] = molecular target: T1, CCR5 receptor (Homo sapiens, UniProt P51681); experiment: 125I-MIP-1β binding competition assay; set-up: expressed in transfected cells; host or cells: Chinese hamster ovary recombinant cells (membranes)
Method: The ability of the compounds of the invention to inhibit the binding of […] was assessed by an in vitro radioligand binding assay. Membranes were prepared from Chinese hamster ovary recombinant cells which express the human CCR5 receptor. The membranes were incubated with 0.05 nM ^125I-MIP-1β in a HEPES 25 mM/CaCl2 5 mM/MgCl2 1 mM buffer and various concentrations of the compounds of the invention. The amount of iodinated MIP-1β bound to the receptor was determined after filtration by the quantification of membrane associated radioactivity using the TopCount-NXT reader (Packard). Competition curves were obtained for compounds of the invention and the concentration of compound which displaced 50% of bound radioligand (IC50) was calculated

CCR5 receptor [2] = molecular target: T1, CCR5 receptor; experiment: Calcium flux aequorin-based assay (agonist response); format: cell-based; set-up: expressed in transfected cells; host or cells: Chinese hamster ovary cells coexpressing apoaequorin and Gα16; settings: for EC50: Chinese hamster ovary cells expressing the CCR5 receptor, apoaequorin and Gα16, read-out: Aequorin/Ca++ assay EC50
Method: The aequorin assay uses the responsiveness of aequorin to intracellular calcium release induced by the activation of G Protein Coupled Receptors (Stables et al., 1997, Anal. Biochem. 252:115-126; Detheux et al., 2000, J. Exp. Med., 192 1501-1508). Briefly, Chinese hamster ovary cells expressing the CCR5 receptor are transfected to coexpress apoaequorin and Gα16. Cells are incubated with 5 μM Coelenterazine H (Promega) overnight at room temperature, and resuspended at a concentration of 0.1×10^6 cells/ml. Cells are then mixed with test agonist compounds and light emission by the aequorin is recorded with a luminometer (PDSS 6000-Hamamatsu) for 30 sec. Results are expressed as Relative Light Units (RLU). Controls include cells not expressing CCR5 in order to exclude possible non-specific effects of the test compound.
An agonist response is defined as an increase of light emission by aequorin corresponding to 10% or more of the light emitted by a reference sample of cells expressing CCR5 and treated with a the reference agonist ligand MIP-1β. The results of the tested compounds are reported as the concentration of compound required to reach 50% (EC50) of the maximum level of light emission induced by these compounds.

[3] = test system: recombinant and non-replicative HIV virus coding for the firefly luciferase; experiment: Inhibitory effect on HIV infection to MAGI-CCR5 cells (HIV-luciferase assay); format: cell-based
Method: The inhibitory activity of the compounds of the invention on HIV infection is measured on the human MAGI R5 recombinant cell line coexpressing the human CCR5 receptor and CD4 at their extracellular membrane. MAGI R5 cells are plated in black view plates at 10,000 cells/well and incubated with the appropriate concentrations of the compounds of the invention during 1 hour. This is followed by a 24 hours infection period with the recombinant and non-replicative HIV virus coding for the firefly luciferase (Bona et al., 2006, Antimicrob. Agents Chemother. 50: 3407-3417). The inhibitory effect of the tested compound on virus entry in MAGI R5 cells is measured by a reduction of luciferase signal (TopCount-NXT reader (Packard) and detection luciferase kit: Steadylite HTS assay kit (Perkin Elmer)) in the presence of the compound of the invention relative to the maximum signal obtained from cells infected with the virus without any added compound. The results of the tested compounds are reported as the concentration of compound required to inhibit 50% (IC50) of the maximum luciferase signal.

[4] = test system: recombinant and non-replicative HIV virus coding for the firefly luciferase; experiment: as above; format: cell-based; settings: 10 μM of the compound; MAGI R5 cells (footnote b)
[5] = membranes of CHO cells expressing human CCR5, 0.05 nM 125I-MIP-1β, read-out: 125I-MIP-1β binding assay IC50
[6] = Human immunodeficiency virus 1, MAGI-CCR5, read-out: HIV-luciferase assay IC50

T1 sequence (P51681 whole entry): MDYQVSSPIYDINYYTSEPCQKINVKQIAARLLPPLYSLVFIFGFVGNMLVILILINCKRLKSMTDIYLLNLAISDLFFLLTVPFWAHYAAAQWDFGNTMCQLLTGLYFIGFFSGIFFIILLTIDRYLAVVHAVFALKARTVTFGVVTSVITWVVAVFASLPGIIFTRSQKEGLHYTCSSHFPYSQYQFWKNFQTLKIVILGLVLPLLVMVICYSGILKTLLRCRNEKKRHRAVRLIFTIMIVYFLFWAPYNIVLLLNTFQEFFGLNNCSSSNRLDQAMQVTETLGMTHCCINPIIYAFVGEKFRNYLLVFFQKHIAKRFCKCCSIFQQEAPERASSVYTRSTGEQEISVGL

Structure (SMILES): O=C(CC1CCN(CCN(c2ccccc2)c2ccccc2)CC1)Nc1ccc(F)cc1 [Compound 4]
IC50 (CCR5 receptor [1]; [5]): 0.0708 µM | EC50 (CCR5 receptor [2]): 0.703 µM | IC50 [3, 6]: 2.47 µM

Structure (SMILES): O=C(CC1CCN(CCN(c2ccccc2)c2ccccc2)CC1)Nc1ccc(Cl)cc1 [Compound 6]
IC50 (CCR5 receptor [1]; [5]): 0.116 µM | EC50 (CCR5 receptor [2]): 1.76 µM | IC50 [3, 6]: 2.05 µM

Structure (SMILES): Cc1ccc(NC(=O)CC2CCN(CCN(c3ccccc3)c3ccccc3)CC2)cc1 [Compound 8]
IC50 (CCR5 receptor [1]; [5]): 0.0133 µM | EC50 (CCR5 receptor [2]): 0.425 µM | IC50 [3, 6]: 2.16 µM

Structure (SMILES): O=C(CC1CCN(CCN(c2ccccc2)c2ccccc2)CC1)NCc1ccc(Cl)cc1 [Compound 15]
IC50 (CCR5 receptor [1]; [5]): 0.106 µM | EC50 (CCR5 receptor [2]): 4.41 µM | IC50 [3, 6]: 1.44 µM

Structure (SMILES): COc1ccc(CNC(=O)CC2CCN(CCN(c3ccccc3)c3ccccc3)CC2)cc1 [Compound 16]
IC50 (CCR5 receptor [1]; [5]): 0.143 µM | EC50 (CCR5 receptor [2]): 0.764 µM | level of inhibition of luciferase activity compared to the inhibition induced by Rantes at 100 nM [4]: 79.6%^b

Structure (SMILES): O=C(CC1CCN(CCN(c2ccccc2)c2ccccc2)CC1)NC1CCCCC1 [Compound 17]
IC50 (CCR5 receptor [1]; [5]): 0.134 µM | EC50 (CCR5 receptor [2]): 0.438 µM | level of inhibition of luciferase activity compared to the inhibition induced by Rantes at 100 nM [4]: 55.8%^b

Structure (SMILES): CCCCc1ccc(NC(=O)CC2CCN(CCN(c3ccccc3)c3ccccc3)CC2)cc1 [Compound 27]
IC50 (CCR5 receptor [1]; [5]): 0.167 µM | EC50 (CCR5 receptor [2]): 2.33 µM | level of inhibition of luciferase activity compared to the inhibition induced by Rantes at 100 nM [4]: 31.5%^b

Structure (SMILES): O=C(CC1CCN(CCN(c2ccccc2)c2ccccc2)CC1)NCc1ccccc1 [Compound 50]
IC50 (CCR5 receptor [1]; [5]): 0.436 µM | level of calcium/aequorin response compared to the calcium/aequorin response of MIP-1β at 100 nM (CCR5 receptor [2]; 10 μM of the compound, activity too low for accurate EC50 calculation (footnote a)): +9.5%^a | IC50 ([3]; Human immunodeficiency virus 1, MAGI, read-out: IC50 (HIV infection of MAGI R5 cells)): 1.6 µM | IC50 [3, 6]: 1.6 µM

IC50 (CCR5 receptor [1]; range over the group, read-out: IC50 (125I-MIP-1β binding), range stated in text for the listed compounds): 0.0133 to 0.436 µM
Structure (SMILES): Cc1cc(NC(=O)CC2CCN([C@H](C)CN(c3ccccc3)S(=O)(=O)CC3CCC(F)(F)CC3)CC2)[nH]n1 [Compound 55]

Structure (SMILES): COc1ccc(NC(=O)CC2CCN(CC[C@H](NC(=O)C3CCC(F)(F)CC3)c3ccccc3)CC2)cc1 [Compound 69]
EC50 (CCR5 receptor [2]): 0.0364 µM | IC50 [3, 6]: 0.0027 µM

Structure (SMILES): COc1ccc(NC(=O)CC2CCN([C@H](C)CN(c3ccccc3)S(=O)(=O)Cc3ccccc3)CC2)cc1 [Compound 96]
IC50 (CCR5 receptor [1]; [5]): 0.0004 µM | EC50 (CCR5 receptor [2]): 0.0706 µM | IC50 [3, 6]: 0.0039 µM

Structure (SMILES): C[C@H](CN(c1ccccc1)S(=O)(=O)Cc1ccccc1)N1CCC(CC(=O)Nc2ccc(F)cc2F)CC1 [Compound 98]
IC50 (CCR5 receptor [1]; [5]): 0.0004 µM | EC50 (CCR5 receptor [2]): 0.0605 µM | IC50 [3, 6]: 0.0036 µM
